Consider three compounds from publication PMC7248877, “Synthesis and Spectral Identification of Three Schiff Bases with a 2-(Piperazin-1-yl)-N-(thiophen-2-yl methylene)ethanamine Moiety Acting as Novel Pancreatic Lipase Inhibitors: Thermal, DFT, Antioxidant, Antibacterial, and Molecular Docking Investigations” (Molecules, 2020).

As a reminder, the IC50 is the concentration at which inhibition is half-maximal. High values mean weaker potency in that assay, low ones greater potency in that assay.

The target of this test is T1, porcine pancreatic lipase (Sus scrofa, UniProt P00591).
T1 construct: gene PNLIP
T1 sequence (P00591 1-450): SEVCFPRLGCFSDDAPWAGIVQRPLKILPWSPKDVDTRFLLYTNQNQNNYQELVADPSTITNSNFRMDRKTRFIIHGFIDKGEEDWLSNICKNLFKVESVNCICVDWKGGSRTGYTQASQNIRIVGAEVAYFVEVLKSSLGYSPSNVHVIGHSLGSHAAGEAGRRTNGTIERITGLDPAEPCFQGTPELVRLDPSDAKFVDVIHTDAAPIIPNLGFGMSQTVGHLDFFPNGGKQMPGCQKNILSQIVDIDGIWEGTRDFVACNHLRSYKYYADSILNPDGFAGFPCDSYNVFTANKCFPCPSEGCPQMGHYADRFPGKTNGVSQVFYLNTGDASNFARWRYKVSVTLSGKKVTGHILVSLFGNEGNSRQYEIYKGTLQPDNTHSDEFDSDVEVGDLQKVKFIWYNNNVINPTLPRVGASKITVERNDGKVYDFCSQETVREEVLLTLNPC
Kind of test: p-nitrophenyl butyrate hydrolysis assay, absorbance at […] nm. It counts as biochemical.

As for `CC(=NCCN1CCNCC1)c1ccc(Cl)s1` [L1, N-(1-(5-Chlorothiophen-2-yl)ethylidene)-2-(piperazin-1-yl)ethanamine], the IC50 was 1.16 mM.

With `C(=N\CCN1CCNCC1)/c1cccs1` [L2, 2-(Piperazin-1-yl)-N-(thiophen-2-ylmethylene)ethanamine], the concentration for half-maximal inhibition (IC50) was 2.24 mM. With `Brc1ccc(C=NCCN2CCNCC2)s1` [L3, N-((5-Bromothiophen-2-yl)methylene)-2-(piperazin-1-yl)ethanamine], the IC50 is 0.524 mM.
